Laboratory results published in patent US20240199598A1 (MITOIMMUNE THERAPEUTICS INC., priority 2021, published 2024).
Read-outs that look alike come from different tables or passages of the source.

What was measured:
[1] = Maintenance of Crystalline form III under melting-cooling, water sorption and desorption, compressive behavior and grinding tests (XRPD); assay type: physicochemical; conditions: melting-cooling method
Procedure: 10 mg of a sample was placed in a mesh stainless steel basket using SMS DVS Advantage 1. The entire experimental cycle consists of two scans (water sorption and desorption) at a constant temperature (25° C.) and 10% RH intervals in the range of 40 to 90% (60 to 360 minutes for each humidity level).
XRPD result, no novel crystalline form was produced.
As an XRPD result, no novel crystalline form was produced.
As a result of the XRPD test, no novel crystalline form was produced.
As a result of the XRPD test, no novel pattern was produced.

[2] = Stability test of Crystalline form III of sulfate (light, dark, 60° C., 40° C./75% RH); assay type: physicochemical
Procedure: The chemical and physical stability of Crystalline form III were studied under conditions of light, light-shielding, 60° C. and 40° C./75% RH for 1 month. […] In the light stability test, the crystalline form was stored in a light stability test chamber without a lid and thus exposed to a total illuminance of 1.2 million lux-hr, and a sample vial completely covered with an aluminum foil was regarded as a light-shielded control (Dark control). Appearance by visual observation for 2 weeks, 1 month, 2 months and 3 months was recorded, and purity assessment and XPRD data collection for residual solid contents were performed.

pKa, UV-metric method = assay type: physicochemical
Source text: As shown in the following Table 2, each combination of counter ions and solvents were given a batch number.

[3] = Physicochemical stability test of free form and 5 salts (60° C., 40° C./75% humidity, light); conditions: for Final purity: HPLC
Procedure: In the case of a light stability test, the vial was stored in a light stability test chamber while being not closed with a lid, and exposed to a total illuminance of 1.2 million lux-hr. A vial light-shielded with aluminum foil was used as an experimental control (Dark control). For stability assessment, state assessment by visual observation, purity assessment using HPLC, and crystalline form assessment using XRPD were conducted, and results thereof are shown in Table 7. […] In FIGS. 19 to 30, “Light” represents light irradiation condition results.

[4] = Solubility of compound of Chemical Formula 1 in various solvents; assay type: physicochemical
Source text: Very low solubility in various solvents adversely affects pharmaceutical development that requires the production of a finished product in a completely dissolved state.

[5] = Oral administration pharmacokinetic test using mice
[6] = 1.2 million lux-hr, listed as Free form of compound 1
[7] = 40° C./75% RH, 1 w, listed as Free form of compound 1
[8] = 60° C., 1 w, listed as Free form of compound 1
[9] = Dark control, listed as Free form of compound 1

O=S1(=O)CCN(Cc2cc(NC3CCOCC3)c3[nH]c(-c4ccccc4)cc3c2)CC1 [Crystalline form III]
Stability of the crystalline form (in words) [1]: stable under each test condition
Purity decrease ([2]; 40° C. for 1 month): 0.67%
Appearance ([2]; 40° C./75% RH, 1 M): White powder
Assay ([2]; 40° C./75% RH, 1 M): 102.84%
Final purity ([2]; 40° C./75% RH, 1 M): 98.71%
Purity change ([2]; 40° C./75% RH, 1 M): −0.67%
XRPD patterns ([2]; 40° C./75% RH, 1 M): Pattern III
Appearance ([2]; 40° C./75% RH, 2 w): White powder
Assay ([2]; 40° C./75% RH, 2 w): 99.42%
Final purity ([2]; 40° C./75% RH, 2 w): 98.77%
Purity change ([2]; 40° C./75% RH, 2 w): −0.61%
XRPD patterns ([2]; 40° C./75% RH, 2 w): Pattern III
Stability (in words) ([2]; 60° C. for 1 month): stable
Appearance ([2]; 60° C., 1 M): White powder
Assay ([2]; 60° C., 1 M): 106.79%
Final purity ([2]; 60° C., 1 M): 99.25%
Purity change ([2]; 60° C., 1 M): −0.13%
XRPD patterns ([2]; 60° C., 1 M): Pattern III
Appearance ([2]; 60° C., 2 w): White powder
Assay ([2]; 60° C., 2 w): 101.08%
Final purity ([2]; 60° C., 2 w): 99.24%
Purity change ([2]; 60° C., 2 w): −0.14%
XRPD patterns ([2]; 60° C., 2 w): Pattern III
Appearance ([2]; Dark (light-shielded control)): White powder
Assay ([2]; Dark (light-shielded control)): 103.17%
Final purity ([2]; Dark (light-shielded control)): 99.33%
Purity change ([2]; Dark (light-shielded control)): −0.05%
XRPD patterns ([2]; Dark (light-shielded control)): Pattern III
Appearance ([2]; Initial): White powder
Final purity ([2]; Initial): 99.38%
XRPD patterns ([2]; Initial): Pattern III
Appearance ([2]; Light (1.2 million lux-hr)): Taupe powder
Assay ([2]; Light (1.2 million lux-hr)): 101.77%
Final purity ([2]; Light (1.2 million lux-hr)): 99.38%
Purity change ([2]; Light (1.2 million lux-hr)): −0.00%
XRPD patterns ([2]; Light (1.2 million lux-hr)): Pattern III
Stability (in words) ([2]; light and light-shielding conditions): stable

O=S1(=O)CCN(Cc2cc(NC3CCOCC3)c3[nH]c(-c4ccccc4)cc3c2)CC1 [compound of Chemical Formula 1, 5-[(1,1-dioxido-4-thiomorpholinyl)methyl]-2-phenyl-N-(tetrahydro-2H-pyran-4-yl)-1H-indol-7-amine]
pKa (pKa, UV-metric method): 4.5
Appearance ([3]; 1.2 million lux-hr (light stability), listed as Free form of compound 1): White powder
Final purity [3, 6]: 99.89%
Assay [3, 6]: 107.41%
Purity change [3, 6]: +0.13%
XRPD patterns [3, 6]: Pattern A
Final purity [3, 7]: 99.95%
Assay [3, 7]: 110.59%
Purity change [3, 7]: +0.19%
XRPD patterns [3, 7]: Pattern A
Chemical stability (purity change %/1 w), 40° C./75% RH ([3]; 40° C./75% RH, 1 w, summary Table 9, listed as Free form of compound of Chemical Formula 1): 0.19%
Final purity [3, 8]: 99.94%
Assay [3, 8]: 105.89%
Purity change [3, 8]: +0.18%
XRPD patterns [3, 8]: Pattern A
Chemical stability (purity change %/1 w), 60° C. ([3]; 60° C., 1 w, summary Table 9, listed as Free form of compound of Chemical Formula 1): 0.18%
Appearance ([3]; Dark control (light-shielded vial)): White powder
Final purity [3, 9]: 99.94%
Assay [3, 9]: 109.40%
Purity change [3, 9]: +0.18%
XRPD patterns [3, 9]: Pattern A
Chemical stability (purity change %/1 w), Light stability ([3]; light stability, summary Table 9, listed as Free form of compound of Chemical Formula 1): 0.13%
solubility ([4]; Heptane, 25° C.): <LOQ
solubility ([4]; Heptane, 50° C.): <LOQ
solubility ([4]; Water, 25° C., read-out: Solubility): 0.001 mg/mL
solubility ([4]; Water, 50° C., read-out: Solubility): 0.046 mg/mL
solubility ([4]; aqueous with cosolvent or surfactant or cyclodextrin, Acetic acid-water (1:1), 25° C., read-out: Solubility): 52.8 mg/mL
solubility ([4]; aqueous with cosolvent or surfactant or cyclodextrin, Acetic acid-water (1:1), 50° C., read-out: Solubility): 75.6 mg/mL
solubility ([4]; aqueous with cosolvent or surfactant or cyclodextrin, Acetone-water (1:2), 25° C., read-out: Solubility): 0.08 mg/mL
solubility ([4]; aqueous with cosolvent or surfactant or cyclodextrin, Acetone-water (1:2), 50° C., read-out: Solubility): 0.16 mg/mL
solubility ([4]; aqueous with cosolvent or surfactant or cyclodextrin, MeOH/water = 1:1 (v/v), 25° C., read-out: Solubility): 0.03 mg/mL
solubility ([4]; aqueous with cosolvent or surfactant or cyclodextrin, MeOH/water = 1:1 (v/v), 50° C., read-out: Solubility): 0.08 mg/mL
solubility ([4]; organic solvent or mixture, 1-Butanol, 25° C., read-out: Solubility): 0.65 mg/mL
solubility ([4]; organic solvent or mixture, 1-Butanol, 50° C., read-out: Solubility): 1 mg/mL
solubility ([4]; organic solvent or mixture, 2-Methyltetrahydrofuran (2-MeTHF), 25° C., read-out: Solubility): 2.78 mg/mL
solubility ([4]; organic solvent or mixture, 2-Methyltetrahydrofuran (2-MeTHF), 50° C., read-out: Solubility): 3.41 mg/mL
solubility ([4]; organic solvent or mixture, Acetone, 25° C., read-out: Solubility): 5.29 mg/mL
solubility ([4]; organic solvent or mixture, Acetone, 50° C., read-out: Solubility): 17.5 mg/mL
solubility ([4]; organic solvent or mixture, Acetonitrile (ACN), 25° C., read-out: Solubility): 3.09 mg/mL
solubility ([4]; organic solvent or mixture, Acetonitrile (ACN), 50° C., read-out: Solubility): 4.04 mg/mL
solubility ([4]; organic solvent or mixture, Chloroform (CHCl3), 25° C., read-out: Solubility): 4.7 mg/mL
solubility ([4]; organic solvent or mixture, Chloroform (CHCl3), 50° C., read-out: Solubility): 4.62 mg/mL
solubility ([4]; organic solvent or mixture, Dimethyl sulfoxide (DMSO), 25° C., read-out: Solubility): 43.4 mg/mL
solubility ([4]; organic solvent or mixture, Dimethyl sulfoxide (DMSO), 50° C., read-out: Solubility): 238 mg/mL
solubility ([4]; organic solvent or mixture, Ethanol (EtOH), 25° C., read-out: Solubility): 1.41 mg/mL
solubility ([4]; organic solvent or mixture, Ethanol (EtOH), 50° C., read-out: Solubility): 1.08 mg/mL
solubility ([4]; organic solvent or mixture, Ethyl acetate (EtOAc), 25° C., read-out: Solubility): 1.36 mg/mL
solubility ([4]; organic solvent or mixture, Ethyl acetate (EtOAc), 50° C., read-out: Solubility): 1.86 mg/mL
solubility ([4]; organic solvent or mixture, Isopropanol (IPA), 25° C., read-out: Solubility): 0.32 mg/mL
solubility ([4]; organic solvent or mixture, Isopropanol (IPA), 50° C., read-out: Solubility): 0.54 mg/mL
solubility ([4]; organic solvent or mixture, Isopropyl acetate (iPrOAc), 25° C., read-out: Solubility): 0.71 mg/mL
solubility ([4]; organic solvent or mixture, Isopropyl acetate (iPrOAc), 50° C., read-out: Solubility): 0.91 mg/mL
solubility ([4]; organic solvent or mixture, Methanol (MeOH), 25° C., read-out: Solubility): 0.59 mg/mL
solubility ([4]; organic solvent or mixture, Methanol (MeOH), 50° C., read-out: Solubility): 1.15 mg/mL
solubility ([4]; organic solvent or mixture, Methyl ethyl ketone (MEK), 25° C., read-out: Solubility): 6.08 mg/mL
solubility ([4]; organic solvent or mixture, Methyl ethyl ketone (MEK), 50° C., read-out: Solubility): 8.12 mg/mL
solubility ([4]; organic solvent or mixture, Methyl isobutyl ketone (MIBK), 25° C., read-out: Solubility): 2.1 mg/mL
solubility ([4]; organic solvent or mixture, Methyl isobutyl ketone (MIBK), 50° C., read-out: Solubility): 2.82 mg/mL
solubility ([4]; organic solvent or mixture, Methyl tert-butyl ether (MTBE), 25° C., read-out: Solubility): 0.06 mg/mL
solubility ([4]; organic solvent or mixture, Methyl tert-butyl ether (MTBE), 50° C., read-out: Solubility): 0.07 mg/mL
solubility ([4]; organic solvent or mixture, N,N-dimethylformamide (DMF), 50° C., read-out: Solubility): 333 mg/mL
solubility ([4]; organic solvent or mixture, N-methyl pyrrolidone (NMP), 25° C., read-out: Solubility): 160 mg/mL
solubility ([4]; organic solvent or mixture, N-methyl pyrrolidone (NMP), 50° C., read-out: Solubility): 192 mg/mL
solubility ([4]; organic solvent or mixture, Tetrahydrofuran (THF), 25° C., read-out: Solubility): 17.4 mg/mL
solubility ([4]; organic solvent or mixture, Tetrahydrofuran (THF), 50° C., read-out: Solubility): 16.3 mg/mL
solubility ([4]; organic solvent or mixture, Toluene, 25° C., read-out: Solubility): 0.02 mg/mL
solubility ([4]; organic solvent or mixture, Toluene, 50° C., read-out: Solubility): 0.02 mg/mL
Cmax ([5]; mice, oral, 10 mg/kg, listed as Free): 1.0152 µg/mL
t½ ([5]; mice, oral, 10 mg/kg, listed as free form): 72 min
AUClast ([5]; mice, oral, 10 mg/kg, listed as free form of the compound of Chemical Formula 1, 10 mg/kg): 3.6039 µg·h/mL
Pharmacokinetic test, t½ ([5]; mice, oral, summary Table 9, listed as Free form of compound of Chemical Formula 1): 60 min
Tmax ([5]; mouse, in vivo, po, 10 mg/kg): 30 min
